Measured values published in patent US11957652B2, “Compositions comprising citrulline and leucine and their use in the treatment of diabetes and metabolic syndrome” (SOCIÉTÉ DES PRODUITS NESTLÉ S.A., priority 2013, dated 2024).

System: rats fed a high fat diet
Assay: Fasting glucose and insulin plasma levels in rats fed a high fat diet
Type: in vivo, rat
Settings: rats on high fat diet, 1 g/kg daily of citrulline or leucine, or 1.0 g/kg leucine and 1.0 g/kg citrulline; for fasting plasma glucose levels (glycemia): compared to high fat diet alone (FIG. 1); for fasting insulin plasma levels (insulinemia): compared to high fat diet alone and to chow-fed healthy rats (FIG. 2)
Procedure: Compositions comprising citrulline, leucine, or […] were tested for their effect on fasting glucose levels and insulin plasma levels. Briefly, rats were split into six groups and fed either chow, a high fat diet, a high fat diet with 1 g/kg leucine daily, a high fat diet with 0.2 g/kg citrulline, a high fat diet with 1 g/kg citrulline daily or a high fat diet with a composition comprising 1.0 g/kg leucine and 1.0 g/kg citrulline.

SMILES	fasting plasma glucose levels (glycemia)	fasting insulin plasma levels (insulinemia)
NC(=O)NCCC[C@H](N)C(=O)O [citrulline]	decrease	decrease
CC(C)C[C@H](N)C(=O)O [leucine]	decrease	decrease
